Results reported in patent publication US4217305A, “Phenylethanolamine derivatives” (Yamanouchi Pharmaceutical Co., Ltd., priority 1977, dated 1980).

Columns and labels:
Type in all cases: in vivo
β-Adrenergic = β-Adrenergic blocking action: antagonism of isoproterenol induced tachycardia in rats; conditions: Rattus norvegicus, iv; reserpine pretreated, pentobarbital anesthetized rats; isoproterenol 0.1 μg/Kg iv.
Experimental: Bilateral vagotomy was performed at the neck. The effects of the test samples to antagonize the isoproterenol (0.1 μg/Kg iv.) induced tachycardia were measured and the results were shown in Table I.

α-Adrenergic = α-Adrenergic blocking action: antagonism of hypertensive response to phenylephrine in anesthetized rats; conditions: Rattus norvegicus, iv; urethane anesthetized, pentolinium treated rats; phenylephrine 10 μg/Kg i.v.; read-out: α-blocking (Rat) ED50
Experimental: A. α-Adrenergic blocking action: (a) The blood pressure was measured in rats anesthetized with urethane and treated with pentolinium.

[1] = tested on: spontaneously hypertensive rats; test: Antihypertensive effects in spontaneously hypertensive rats, oral administration; conditions: at 10 mg/Kg p.o.; mean ± S.E. of 5 to 10 animals; measured indirectly from the tail
Experimental: B. Antihypertensive effects in spontaneously hypertensive rats: Oral administration: The systolic blood pressure was measured indirectly from the tail using a programmed electro-sphygmanometer (Nacro Bio-Systems Inc., PE-300) on spontaneously hypertensive rats having a systolic blood pressure of higher than 150 mmHg, the result being shown in Table II.

In the case of `COc1ccccc1OCC(C)NCC(O)c1ccc(O)c(S(N)(=O)=O)c1.Cl` (stereo not drawn) [Example 43, 2-Hydroxy-5-{1-hydroxy-2-[2-(2-methoxyphenoxy)-1-methylethylamino]ethyl}benzenesulfonamide hydrochloride], the ED50 (β-Adrenergic) is reported as 0.53 mg/kg, the ED50 (α-Adrenergic) is reported as 0.0091 mg/kg and the “antihypertensive effect: change in systolic blood pressure” value [1] is reported as -33 ± 6.9 mmHg.
With `COc1ccccc1OCCNCC(O)c1ccc(C)c(S(N)(=O)=O)c1.Cl` (stereo not drawn) [Example 47, 5-{1-Hydroxy-2-[2-(2-methoxyphenoxy)ethylamino]ethyl}-2-methylbenzenesulfonamide hydrochloride] the ED50 (β-Adrenergic) was 0.16 mg/kg, the ED50 (α-Adrenergic) was 0.034 mg/kg and the “antihypertensive effect: change in systolic blood pressure” value [1] was -35 ± 6.4 mmHg.
